Measurements from paper PMC9963138 (Molecules, 2023).
“Also recorded” adds a separate entry of the source. Positions of bridges follow the written chain, without caps; N, C: chain ends. Non-standard residues stand in square brackets, D forms with d. Residues, ends and D or L forms follow the SMILES beside them. Pen = CC(C)(S)[C@H](N)C(=O)O; Orn = NCCC[C@H](N)C(=O)O

How the values were obtained:
μ-opioid receptors (MOR) [1] = settings: cited from earlier work
μ-opioid receptors (MOR) [2] = settings: cited from earlier work; remark: listed apart in the source
asialofetuin (ASF) = biological target: T1, asialofetuin (ASF) (Bos taurus, UniProt P12763); experiment: Carbohydrate-binding study by isothermal titration calorimetry (ITC)
T1 construct: purchased Sigma-Aldrich
T1 sequence (P12763 19-359): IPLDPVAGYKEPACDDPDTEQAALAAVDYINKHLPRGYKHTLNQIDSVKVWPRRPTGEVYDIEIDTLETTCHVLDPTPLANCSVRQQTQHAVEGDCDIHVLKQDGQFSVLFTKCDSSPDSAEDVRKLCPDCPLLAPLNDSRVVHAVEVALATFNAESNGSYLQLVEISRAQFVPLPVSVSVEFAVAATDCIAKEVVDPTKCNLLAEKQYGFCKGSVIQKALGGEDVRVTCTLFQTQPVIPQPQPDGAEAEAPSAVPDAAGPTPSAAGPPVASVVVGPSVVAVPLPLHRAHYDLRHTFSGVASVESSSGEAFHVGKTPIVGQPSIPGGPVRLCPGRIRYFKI
Protocol: We have shown previously that odorranalectin binds to model glycoproteins containing terminal Fuc, Gal and GalNAc sugar moieties with μM affinities and identified the binding interface. […] The binding affinities of OL-CTOP toward ASF were determined by Isothermal Titration Calorimetry (ITC). […] The enthalpy (ΔH) of the binding interaction between OL-CTOP and ASF was −131 kJ/mol, whereas the entropy (−TΔS) was 109.5 kJ/mol, showing that the OL-CTOP/ASF interaction is an enthalpy-driven process, which is typical for interactions between lectins and carbohydrate ligands.
A binding study was performed at 25 °C in 20 mM HEPES at pH 7.0 by using a titration calorimeter PEAQ-ITC (Malvern, Northampton, MA) with a reaction cell volume of 300 μL. Typically, asialofetuin solutions (240 μM) were in the reaction cell and titrated with solutions of OL-CTOP at a concentration of 4000 μM. OL-CTOP and asialofetuin were dialyzed and prepared in the same buffer. At least 18 consecutive injections of 2 μL were applied every 120 s interval at a constant stir speed of 750 rpm. The concentrations of OL-CTOP and ASF were confirmed by measurements using a BioTek Epoch microplate spectrophotometer (Agilent Technologies, Santa Clara, CA, USA). The raw integrated heat plots were analyzed using the MicroCal PEAQ-ITC software v1.21 (Malvern) under the 1-set-of-sites model, and the control parameter as a fitted offset was applied to each titration as per the manufacturer’s guidelines and our previous applications. The reported thermodynamic parameters were derived from two independent experiments and then averaged.

C57BL/6J mice [3] = experiment: Breathing rate in mice (Oxymax/CLAMS), morphine-induced respiratory depression; format: in vivo
Protocol: Mice were administered intranasal saline or OL-CTOP (100 or 600 μg) 45 min prior to intraperitoneal morphine (20 mg/kg).
Respiration rates (in breaths per minute) were assessed using the Oxymax/CLAMS system (Columbus Instruments, Columbus, OH, USA) as described previously. Mice were habituated to their individual sealed housing chambers for 60 min before testing. Mice were administered morphine (20 mg/kg, i.p.) or vehicle, as indicated, and 5 min later, confined to the CLAMS testing chambers. Additional mice received pretreatment with saline (i.n.s.) or OL-CTOP (100 or 600 μg, i.n.s.) 45 min prior to morphine (20 mg/kg, i.p.). Pressure monitoring within the sealed chambers measured the frequency of respiration. Respiration data were averaged over 20 min periods for 120 min post-i.p. injection of the saline or morphine. Data are presented as % vehicle response ± SEM, breaths per minute.

MOR = biological target: T2, MOR (Mus musculus, UniProt P42866); experiment: 55 °C warm-water tail-withdrawal test, antagonism of i.c.v. morphine; format: in vivo, C57BL/6J mice; settings: mice, p = 0.003
T2 construct: MOR antagonism by CTOP was confirmed in vivo by pretreating mice with the parent peptide; from tissue; host or cells: living male C57BL/6J mice (central nervous system)

DOR = DOR (Mus musculus, UniProt P32300); experiment: 55 °C warm-water tail-withdrawal test, antagonism of DOR-selective agonist SNC-80; settings: mice; 100 μg i.n.s. pretreatment; SNC-80 100 nmol i.c.v.; p = 0.67; 7–8 mice
Protocol: (§1) All solutions for animal administration were prepared fresh daily. All mice were lightly anesthetized with isoflurane (0.4%) prior to compound administration. […] The volume of all i.c.v. injections was 5 μL, using a 10-μL Hamilton microliter syringe. An incision was made in the scalp of the lightly anesthetized mouse, and the injection was made 2 mm lateral and 2 mm caudal to bregma at a depth of 3 mm.
(§2) The distal 2.5 cm of a mouse tail was immersed in warm (55 °C) water contained in a 1.5-L heated water bath. The time from the onset of the noxious heat stimulus to the withdrawal of the tail from the heat source was recorded.

KOR = KOR (Mus musculus, UniProt P33534); experiment: 55 °C warm-water tail-withdrawal test, antagonism of KOR-selective agonist U50,488; settings: mice; 100 μg i.n.s. pretreatment; U50,488 100 nmol i.c.v.; p = 0.99; 7–8 mice
Protocol: as §1, §2

C57BL/6J mice [4] = experiment: 55 °C warm-water tail-withdrawal test, compound alone
Protocol: Graded doses of OL-CTOP (100, 300 or 600 μg) were first administered through the intranasal (i.n.s.) route.
All mice were lightly anesthetized with isoflurane (0.4%) prior to compound administration. […] The volume of all i.c.v. injections was 5 μL, using a 10-μL Hamilton microliter syringe. An incision was made in the scalp of the lightly anesthetized mouse, and the injection was made 2 mm lateral and 2 mm caudal to bregma at a depth of 3 mm.
The 55 °C warm-water tail-withdrawal test was performed as previously described [73]. The distal 2.5 cm of a mouse tail was immersed in warm (55 °C) water contained in a 1.5-L heated water bath. The time from the onset of the noxious heat stimulus to the withdrawal of the tail from the heat source was recorded.

[5] = biological target: T3, trypsin immobilized on agarose resin (Bos taurus, UniProt P00760); experiment: Proteolytic stability toward immobilized trypsin; settings: RP-HPLC and MALDI-TOF MS
T3 sequence (P00760 24-246): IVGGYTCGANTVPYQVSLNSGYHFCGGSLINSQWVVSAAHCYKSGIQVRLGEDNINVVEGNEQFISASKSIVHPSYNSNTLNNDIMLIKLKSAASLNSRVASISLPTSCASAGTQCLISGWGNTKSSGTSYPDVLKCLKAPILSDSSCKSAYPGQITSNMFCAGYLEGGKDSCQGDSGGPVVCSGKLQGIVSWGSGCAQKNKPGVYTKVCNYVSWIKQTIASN
Protocol: Immobilized trypsin helped eliminate enzyme digest contamination and thus simplify sample analysis. […] After incubation at 37 °C for 20 min, 1 h, and 16 h, 20 μL of treated samples was collected and analyzed by analytical RP-HPLC and MALDI-TOF MS (Supplementary Materials).

[6] = tested on: tosylsulfonyl phenylalanyl chloromethyl ketone (TPCK) trypsin immobilized on agarose resin; experiment: TPCK trypsin immobilized on agarose resin in digestion buffer (0.1 M NH4HCO3 [pH 8.0]); settings: 37 °C, up to 16 h (methods); 24 h (results, b12 and Figure 2)
[7] = tested on: model glycoproteins containing terminal Fuc, Gal and GalNAc sugar moieties; settings: cited from earlier work
Text: We have shown previously that odorranalectin binds to model glycoproteins containing terminal Fuc, Gal and GalNAc sugar moieties with μM affinities and identified the binding interface.

[8] = in vivo; cited from earlier work
Text: Opioid medication misuse, addiction, and overdose are growing public health problems nationwide. Methadone, buprenorphine, naltrexone and naloxone are the only FDA-approved medications to treat opioid use disorder (OUD) and, in the case of opioid receptor antagonists naltrexone and naloxone, overdose. […] Given their potency, peptides represent particularl ...

[9] = 25 °C, 20 mM HEPES pH 7.0, average of two independent experiments

T2 sequence (P42866 whole entry): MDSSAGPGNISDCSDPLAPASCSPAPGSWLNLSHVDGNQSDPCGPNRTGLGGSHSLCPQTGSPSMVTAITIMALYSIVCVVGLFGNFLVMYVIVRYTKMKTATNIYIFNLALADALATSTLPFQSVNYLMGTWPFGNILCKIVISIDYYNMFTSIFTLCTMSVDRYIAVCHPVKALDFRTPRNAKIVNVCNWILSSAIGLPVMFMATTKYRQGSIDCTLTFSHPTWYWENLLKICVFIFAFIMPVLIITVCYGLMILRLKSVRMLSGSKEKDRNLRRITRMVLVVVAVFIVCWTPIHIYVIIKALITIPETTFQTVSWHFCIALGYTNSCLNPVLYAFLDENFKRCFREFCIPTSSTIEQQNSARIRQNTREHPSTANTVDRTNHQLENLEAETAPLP
KOR, sequence (P33534 whole entry): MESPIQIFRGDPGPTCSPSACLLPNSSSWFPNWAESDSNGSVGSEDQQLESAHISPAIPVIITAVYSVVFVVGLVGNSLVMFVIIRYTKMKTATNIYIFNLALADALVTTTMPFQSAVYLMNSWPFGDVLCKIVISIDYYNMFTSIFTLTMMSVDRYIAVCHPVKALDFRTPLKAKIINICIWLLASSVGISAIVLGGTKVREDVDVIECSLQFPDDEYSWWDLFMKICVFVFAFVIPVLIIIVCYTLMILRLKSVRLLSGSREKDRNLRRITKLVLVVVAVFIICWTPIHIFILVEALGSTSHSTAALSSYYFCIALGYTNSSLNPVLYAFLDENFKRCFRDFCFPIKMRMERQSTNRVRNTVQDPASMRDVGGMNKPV
DOR, sequence (P32300 whole entry): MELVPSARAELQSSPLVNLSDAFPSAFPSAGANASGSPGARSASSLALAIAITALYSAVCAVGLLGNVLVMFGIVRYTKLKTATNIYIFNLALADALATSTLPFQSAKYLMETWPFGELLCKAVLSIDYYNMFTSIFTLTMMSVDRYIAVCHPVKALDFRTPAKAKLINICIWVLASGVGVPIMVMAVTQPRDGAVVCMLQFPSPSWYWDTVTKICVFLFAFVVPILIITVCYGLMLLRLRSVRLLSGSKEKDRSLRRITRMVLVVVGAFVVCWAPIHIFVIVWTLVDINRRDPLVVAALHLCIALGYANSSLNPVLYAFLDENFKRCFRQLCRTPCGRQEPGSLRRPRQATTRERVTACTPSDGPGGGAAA

**Q.** Which “affinity for μ-opioid receptors (MOR)” value (μ-opioid receptors (MOR) [1]) does the source give for `C[C@@H](O)[C@H](NC(=O)[C@H]1NC(=O)[C@H]([C@@H](C)O)NC(=O)[C@H](CCCN)NC(=O)[C@@H](Cc2c[nH]c3ccccc23)NC(=O)[C@H](Cc2ccc(O)cc2)NC(=O)[C@@H](NC(=O)[C@H](N)Cc2ccccc2)CSSC1(C)C)C(N)=O` [CTOP, H-D-Phe-cyclo(Cys-Tyr-D-Trp-Orn-Thr-Pen)-Thr-NH2] here?
**A.** 2.8 nM

**Q.** What about the “MOR antagonism, times more potent than naloxone” value (μ-opioid receptors (MOR) [2]) of the same compound?
**A.** 10–400 times

**Q.** Which ΔG of binding (asialofetuin (ASF); 20 mM HEPES pH 7.0, one-set-of-sites model) does the source give for `C[C@H](NC(=O)[C@@H](N)Cc1ccc(O)cc1)C(=O)N[C@@H](CO)C(=O)N1CCC[C@H]1C(=O)N[C@@H](CCCCN)C(=O)N[C@H]1CSSC[C@@H](C(=O)N[C@H](C(N)=O)[C@@H](C)O)NC(=O)[C@H]([C@@H](C)O)NC(=O)[C@H]2NC(=O)[C@H]([C@@H](C)O)NC(=O)[C@H](CCCN)NC(=O)[C@@H](Cc3c[nH]c4ccccc34)NC(=O)[C@H](Cc3ccc(O)cc3)NC(=O)[C@H](CSSC2(C)C)NC(=O)[C@@H](Cc2ccccc2)NC(=O)[C@H](CCCNC(=N)N)NC(=O)[C@H](Cc2ccccc2)NC1=O` [OL-CTOP] (H-YASPKCFR[dF]CY[dW][Orn]T[Pen]TCT-NH2; disulfide 6-17, 10-15; N-terminus assumed) here?
**A.** -5.14 kcal/mol

**Q.** And the Kd (asialofetuin (ASF); 25 °C, 20 mM HEPES pH 7.0, ASF 240 μM in cell, peptide 4000 μM, one-set-of-sites model, average of two independent experiments, read-out: Kd, OL-CTOP/ASF binding)?
**A.** 176 µM

**Q.** What about the “enthalpy (ΔH) of binding” value (asialofetuin (ASF); [9]) of the same compound?
**A.** -31.3 kcal/mol

**Q.** What about the “entropy (−TΔS) of binding” value (asialofetuin (ASF); [9]) of the same compound?
**A.** 26.17 kcal/mol

**Q.** What about the “protection from morphine-induced respiratory depression, 100 μg” value (C57BL/6J mice [3]; 100 μg i.n.s. 45 min prior to morphine 20 mg/kg i.p., p = 0.05 at 20–40 min, p = 0.02 at 40–60 min vs morphine alone) of the same compound?
**A.** significantly prevented morphine-induced respiratory depression

**Q.** What about the “respiration rate versus vehicle-treated mice, late period, 100 μg” value (C57BL/6J mice [3]; 100 μg i.n.s. before morphine 20 mg/kg i.p., 60–120 min, p ≤ 0.03) of the same compound?
**A.** elevated respiration

**Q.** What about the “respiration rate versus vehicle-treated mice out to 60 min, 100 μg” value (C57BL/6J mice [3]; 100 μg i.n.s. before morphine 20 mg/kg i.p., p = 0.06, 0.55 and 0.75) of the same compound?
**A.** no significant differences in respiration rate

**Q.** What about the “protection from morphine-induced respiratory depression, 600 μg” value (C57BL/6J mice [3]; 600 μg i.n.s. 45 min prior to morphine 20 mg/kg i.p., p ≤ 0.009, 0–60 min vs morphine alone) of the same compound?
**A.** significantly prevented morphine-induced respiratory depression

**Q.** What about the “respiration rate versus vehicle-treated mice, 600 μg” value (C57BL/6J mice [3]; 600 μg i.n.s. before morphine 20 mg/kg i.p., 20–120 min, p ≤ 0.04) of the same compound?
**A.** elevated respiration

**Q.** What about the “antagonism of MOR-preferring agonist morphine (selectivity test)” value (MOR; 100 μg i.n.s. pretreatment, morphine 10 nmol i.c.v., 7–8 mice) of the same compound?
**A.** significant antagonism

**Q.** And the “antagonism of morphine antinociception, intranasal pretreatment 30-600 μg” value (MOR; 30, 100, 300 or 600 μg i.n.s., morphine 10 nmol i.c.v. after return to baseline at 45 min, latency 20, 30, 40 min afterward, five to eight mice)?
**A.** significant general reduction in the antinociceptive effect of morphine

**Q.** What about the “antagonism of DOR-selective agonist SNC-80” value (DOR) of the same compound?
**A.** without effect

**Q.** And the “antagonism of KOR-selective agonist U50,488” value (KOR)?
**A.** without effect

**Q.** What about the “increase in tail withdrawal latency from baseline, peptide alone” value (C57BL/6J mice [4]; mice, 100, 300 or 600 μg i.n.s., out to 30 min post-administration, p = 0.01) of the same compound?
**A.** ~ 1 s

**Q.** And the “further cleavage after 1 h incubation with trypsin” value ([5]; 1 h, immobilized TPCK trypsin, 0.1 M NH4HCO3 pH 8.0, 37 °C)?
**A.** the peptide bond between Arg^8 and phe^9 was also cleaved

**Q.** What about the “parent peptide remaining after the first 10 min with trypsin” value ([5]; TPCK trypsin immobilized on agarose, 20 TAME units, 0.1 M NH4HCO3 pH 8.0, 1 mg peptide, 37 °C) of the same compound?
**A.** without a detectable trace of the parent peptide

**Q.** For `CN1CC[C@]23c4c5ccc(O)c4O[C@H]2[C@@H](O)C=C[C@H]3[C@H]1C5` [morphine, reference compound], which “respiration after morphine with saline pretreatment versus vehicle alone” value (C57BL/6J mice [3]; morphine 20 mg/kg i.p. after i.n.s. saline, 10–60 min, p < 0.0001) is on record?
**A.** significant, time-dependent respiratory depression

**Q.** What about the “tail-withdrawal latency after the agonist alone” value (C57BL/6J mice [4]; control (naïve) mice, 10 nmol i.c.v., versus baseline 1.49 ± 0.09 s, p < 0.0001) of the same compound?
**A.** significant increase in tail-withdrawal latency

**Q.** For “Y-A-S-P-K-C-F-R-f-C-Y-w-O-T-Pen-T-C-T-NH2”, which cleaved bond [6] is on record?
**A.** K-C, first_seen, within the first 10 min; also recorded: Arg8-phe9, major, 1 h

**Q.** For “YASPK-cyclo(CFRYPNGVLAC)T (disulfide) [odorranalectin]”, which “affinity for model glycoproteins” value [7] is on record?
**A.** μM affinities

**Q.** For oxytocin, which “plasma t1/2” value [8] is on record?
**A.** 1 to 6 min

**Q.** What about the “t1/2 in the extracellular space of the brain and in the CSF” value [8] of the same compound?
**A.** approximately 30 min
